Results from ChEMBL document CHEMBL4028859, “Inhibition of Calcium Dependent Protein Kinase 1 (CDPK1) by Pyrazolopyrimidine Analogs Decreases Establishment and Reoccurrence of Central Nervous System Disease by Toxoplasma gondii” (J Med Chem, 2017).

Legend:
[1] = (§1) AUC (infinity) in Swiss albino mouse at 3 mg/kg, iv administered as single dose by LC-MS/MS analysis; assay type: ADME, organism-based; set-up: dose 3 mg/kg, time infinity, route intravenous; settings: Swiss albino, in vivo
[2] = (§2) Volume of distribution at steady state in Swiss albino mouse at 3 mg/kg, iv administered as single dose by LC-MS/MS analysis; assay type: ADME, organism-based; settings: Swiss albino, in vivo, read-out: Vdss
[3] = (§3) AUClast in Swiss albino mouse at 10 mg/kg, po administered as single dose by LC-MS/MS analysis; assay type: ADME, organism-based; set-up: dose 10 mg/kg, route oral, time 0 - last; settings: Swiss albino, in vivo
[4] = Initial concentration in Swiss albino mouse at 3 mg/kg, iv administered as single dose by LC-MS/MS analysis; assay type: ADME, organism-based; settings: in vivo
[5] = Apparent permeability from basolateral to apical side in human Caco2 cells at 5 uM by LC-MS/MS analysis; assay type: ADME, cell-based; settings: caco-2, 5 µM
[6] = Apparent permeability from apical to basolateral side in human Caco2 cells at 5 uM by LC-MS/MS analysis; assay type: ADME, cell-based; settings: caco-2, 5 µM
[7] = tested on: Mus musculus; experiment: Oral bioavailability in Swiss albino mouse at 10 mg/kg administered as single dose by LC-MS/MS analysis; assay type: ADME, organism-based; settings: in vivo
[8] = (§4) AUC (infinity) in Swiss albino mouse at 10 mg/kg, po administered as single dose by LC-MS/MS analysis; assay type: ADME, organism-based; set-up: dose 10 mg/kg, time infinity, route oral; settings: Swiss albino, in vivo
[9] = (§5) AUClast in Swiss albino mouse at 3 mg/kg, iv administered as single dose by LC-MS/MS analysis; assay type: ADME, organism-based; set-up: dose 3 mg/kg, time 0 - last, route intravenous; settings: Swiss albino, in vivo
[10] = (§6) Tmax in Swiss albino mouse at 10 mg/kg, po administered as single dose by LC-MS/MS analysis; assay type: ADME, organism-based; settings: Swiss albino, in vivo
[11] = (§7) Cmax in Swiss albino mouse at 10 mg/kg, po administered as single dose by LC-MS/MS analysis; assay type: ADME, organism-based; set-up: dose 10 mg/kg, route oral; settings: Swiss albino, in vivo
[12] = tested on: Mus musculus; experiment: as §2; assay type: ADME, organism-based; settings: in vivo
[13] = tested on: Mus musculus; experiment: as §3; assay type: ADME, organism-based; set-up: dose 10 mg/kg, route oral, time 0 - last; settings: in vivo
[14] = Ratio of total drug level in CNS to serum in Swiss albino mouse at 10 to 50 mg/kg, po administered as single dose upto 24 hrs by LC-MS/MS analysis; assay type: ADME, organism-based
[15] = Dissociation constant, pKa of compound; assay type: physicochemical
[16] = tested on: Mus musculus; experiment: as §4; assay type: ADME, organism-based; set-up: dose 10 mg/kg, time infinity, route oral; settings: in vivo
[17] = tested on: Mus musculus; experiment: as §5; assay type: ADME, organism-based; set-up: dose 3 mg/kg, time 0 - last, route intravenous; settings: in vivo
[18] = tested on: Mus musculus; experiment: as §6; assay type: ADME, organism-based; settings: in vivo
[19] = Ratio of total drug level in brain to plasma in Swiss albino mouse at 10 to 50 mg/kg, po administered as single dose upto 24 hrs by LC-MS/MS analysis; assay type: ADME, organism-based; settings: read-out: BPR
[20] = tested on: Mus musculus; experiment: as §7; assay type: ADME, organism-based; set-up: dose 10 mg/kg, route oral; settings: in vivo
[21] = tested on: Mus musculus; experiment: as §1; assay type: ADME, organism-based; set-up: dose 3 mg/kg, time infinity, route intravenous; settings: in vivo

Compound CC(C)(C)n1nc(Cc2cccc(Cl)c2)c2c(N)ncnc21 has an AUC(0-inf) [1] of 1080 ng·h/mL, a Vd [2] of 1.09 L/kg and an AUC(0-t) [3] of 919 ng·h/mL. For the same compound, the C0 [4] was 6890 ng/mL, the Papp [5] was 28.7 ×10⁻⁶ cm/s and the Papp [6] was 42.9 ×10⁻⁶ cm/s. It also gave an F [7] of 26%, an AUC(0-inf) [8] of 931 ng·h/mL and an AUC(0-t) [9] of 1080 ng·h/mL. It also gave a Tmax [10] of 15 min and a Cmax [11] of 585 ng/mL.
Work on Nc1ncnc2c1c(Oc1cccc(Cl)c1)nn2CC1CCNCC1(F)F (configuration not stated) yielded a Vdss [12] of 3.68 L/kg, an AUClast [13] of 3058.44 ng·h/mL and a C0 [4] of 1210 ng/mL. The Papp [5] was 21.2 ×10⁻⁶ cm/s, the Kp at 24 h [14] was 5.6 and the Papp [6] was 22.8 ×10⁻⁶ cm/s. The pKa [15] was 7.1, the AUC [16] was 3547.95 ng·h/mL and the AUClast [17] was 975.9 ng·h/mL. The Tmax [18] was 15 min, the Kp at 24 h [19] was 1.3 and the Cmax [20] was 1048.8 ng/mL.
CC(C)(C)n1nc(Oc2cccc(Cl)c2)c2c(N)ncnc21 showed a Vdss [12] of 1.1 L/kg, an AUClast [13] of 1172.75 ng·h/mL and a C0 [4] of 5470 ng/mL. The Papp [5] was 30.6 ×10⁻⁶ cm/s, the Papp [6] was 34.8 ×10⁻⁶ cm/s and the AUC [16] was 1279.2 ng·h/mL. The Tmax [18] was 15 min and the Cmax [20] was 1136.36 ng/mL.
Compound Nc1ncnc2c1c(Sc1cccc(Cl)c1)nn2CC1CCNCC1(F)F (configuration not stated) has a Papp [5] of 25.3 ×10⁻⁶ cm/s, a Papp [6] of 27.1 ×10⁻⁶ cm/s and a pKa [15] of 7.1.
Nc1ncnc2c1c(Sc1cccc(Cl)c1)nn2CC1CCNCC1 showed a Papp [5] of 25.6 ×10⁻⁶ cm/s, a Papp [6] of 2.76 ×10⁻⁶ cm/s and a pKa [15] of 10.4.
Nc1ncnc2c1c(Oc1cccc(Cl)c1)nn2CC1CCNCC1 gave a Vdss [12] of 19.59 L/kg, an AUClast [13] of 757.85 ng·h/mL and a C0 [4] of 536 ng/mL. The Papp [5] was 9.58 ×10⁻⁶ cm/s, the Papp [6] was 1.07 ×10⁻⁶ cm/s and the pKa [15] was 10.4. For the same compound, the AUC [16] was 891.24 ng·h/mL, the AUClast [17] was 449.57 ng·h/mL and the Tmax [18] was 120 min. It also gave a Cmax [20] of 182.56 ng/mL.
Compound Cc1cccc(Oc2nn(C(C)(C)C)c3ncnc(N)c23)c1 has an AUC [21] of 625.04 ng·h/mL, a Vdss [12] of 2.32 L/kg and an AUClast [13] of 85.47 ng·h/mL. For the same compound, the C0 [4] was 2740 ng/mL, the Papp [5] was 14.6 ×10⁻⁶ cm/s and the Papp [6] was 15 ×10⁻⁶ cm/s. For the same compound, the AUC [16] was 91.42 ng·h/mL, the AUClast [17] was 619.33 ng·h/mL and the Tmax [18] was 15 min. It also gave a Cmax [20] of 76.69 ng/mL.
